In patent publication US12202815B2, “Selective androgen receptor degrader (SARD) ligands and methods of use thereof” (priority 2018, dated 2025):
Values joined by “and” are separate entries in the source; they are usually repeats but may differ in a detail not shown here. Identical values can stand only once. “Also recorded” adds a separate entry of the source. Like-named read-outs stand apart in the source and are kept apart here.

How the values were obtained:
[1] = assay type: in vitro ADME; settings: human liver microsomes
Protocol: (§1) The assay was done in a final volume of 0.5 ml in duplicates (n=2). […] After pre-incubation, reaction was started by addition of 1 mM NADPH (pre-incubated at 37° C.). Incubations were carried out in triplicate and at various time-points (0, 5, 10, 15, 30 and 60 minutes) 100 μl aliquots were removed and quenched with 100 μl of acetonitrile containing internal standard. Samples were vortex mixed and centrifuged at 4000 rpm for 10 minutes. The supernatants were transferred to 96 well plates and submitted for LC-MS/MS analysis. As control, sample incubations done in absence of NADPH were included. From % PCR (% Parent Compound Remaining), rate of compound disappearance is determined (slope) and in vitro CLint (μl/min/mg protein) was calculated.

full length AR = assay: LNCaP or AD1 degradation (AR FL), Western blot; assay type: cell-based
[2] = for metabolism (in words): data not shown
RLM metabolism half-life = assay type: in vitro ADME; settings: rat liver microsomes
Protocol: as §1

in vivo = settings: male, Sprague Dawley, rat, 20 mpk
[3] = for serum drug level (bioavailability): rats dosed at 20 mg/kg
[4] = Pharmacokinetics in male Sprague Dawley rats (oral 7 days, iv Day 1)
Protocol: At initial dosing, the animals were 12 weeks of age. The animals were group housed (up to three animals/cage/group) in polycarbonate cages with hardwood chip bedding. […] Water was provided fresh daily, ad libitum. […] As necessary, the 12-hour dark cycle was interrupted to accommodate study procedures. […] Individual doses were calculated based on body weights recorded on Day 1 and Day 7 of dose administration. […] A single intravenous dose was administered via a tail vein and blood sample on Day 1.
Animals were weighed at the time of animal selection and on Day 1 and Day 7 of dose administration.
Centrifugation began within 1 hour of collection. Plasma was placed into 96-well tubes with barcode labels. Plasma was maintained on dry ice prior to storage at approximately −70° C. Drug concentrations were measured by established chromatography/mass spectrometry (LC-MS/MS) methods.

[5] = High dose Hershberger experiment, 7 days oral; assay type: in vivo, Sprague Dawley rat; settings: 100 mpk oral 7 days, individual animals
Protocol: Body weights were recorded on day 0 and day 7 (Table 4B). On day 7, animals were sacrificed and organs were observed.

AR = biological target: T1, AR (Rattus norvegicus, UniProt P15207); settings: castrated rats, 20 mg/kg for 13 days
T1 sequence (P15207 1-902): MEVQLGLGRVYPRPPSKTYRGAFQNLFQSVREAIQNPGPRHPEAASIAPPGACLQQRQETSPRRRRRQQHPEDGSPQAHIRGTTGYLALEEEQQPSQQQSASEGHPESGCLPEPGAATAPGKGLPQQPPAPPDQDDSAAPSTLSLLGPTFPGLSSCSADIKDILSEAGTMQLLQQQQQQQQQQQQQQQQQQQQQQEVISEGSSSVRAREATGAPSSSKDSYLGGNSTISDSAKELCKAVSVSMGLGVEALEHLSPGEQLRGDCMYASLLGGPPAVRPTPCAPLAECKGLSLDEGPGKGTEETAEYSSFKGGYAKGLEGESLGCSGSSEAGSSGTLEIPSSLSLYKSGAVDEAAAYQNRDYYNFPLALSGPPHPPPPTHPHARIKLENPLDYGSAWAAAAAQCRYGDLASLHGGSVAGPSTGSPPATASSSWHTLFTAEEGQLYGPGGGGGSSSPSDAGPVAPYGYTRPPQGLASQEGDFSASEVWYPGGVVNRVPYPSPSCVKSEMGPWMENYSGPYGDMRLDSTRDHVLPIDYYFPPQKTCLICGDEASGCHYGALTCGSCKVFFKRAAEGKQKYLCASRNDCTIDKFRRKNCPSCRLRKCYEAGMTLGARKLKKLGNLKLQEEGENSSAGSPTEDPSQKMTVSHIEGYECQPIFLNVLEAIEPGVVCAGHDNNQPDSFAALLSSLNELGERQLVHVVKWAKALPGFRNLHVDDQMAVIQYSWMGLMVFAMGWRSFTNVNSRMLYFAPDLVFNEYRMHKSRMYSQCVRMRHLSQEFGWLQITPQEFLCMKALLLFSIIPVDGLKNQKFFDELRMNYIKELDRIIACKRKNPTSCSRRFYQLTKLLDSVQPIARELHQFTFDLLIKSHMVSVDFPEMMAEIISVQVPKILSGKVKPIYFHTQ
Description: One week after castration, the animals were randomized and dosed for 13 days p.o. as indicated below. Dosing solutions were be prepared in 20% DMSO+80% PEG. Body weights were be measured on day 1 and at the time of sacrifice. At sacrifice, prostate and seminal vesicles weights were taken.

[6] = Table 9, Group 3, oral 30 mg/kg
[7] = male, Sprague Dawley, rat, in vivo, iv, 5 mg/kg
[8] = male, Sprague Dawley, rat, in vivo, po, 5 mg/kg
[9] = male, Sprague Dawley, rat, in vivo, po, 20 mg/kg
[10] = male, Sprague Dawley, rat, in vivo, po, 30 mg/kg
[11] = male, Sprague Dawley, rat, in vivo, po, 60 mg/kg

C[C@](O)(Cn1ccc2cc(F)ccc21)C(=O)Nc1ccc(C#N)c(C(F)(F)F)c1 [Compound 11]
HLM Metabolism (H.L. min) [1]: 6 min
Degradation (% at 3 μM) (full length AR; 3 μM, Table 3): 60%

C[C@](O)(Cn1ccc2cc(F)ccc21)C(=O)Nc1cnc(C#N)c(C(F)(F)F)c1 [Compound 47, (S)—N-(6-Cyano-5-(trifluoromethyl)pyridin-3-yl)-3-(5-fluoro-1H-indol-1-yl)-2-hydroxy-2-methylpropanamide]
metabolism (in words) [2]: rapid metabolism

C[C@](O)(Cn1nc(F)c2cc(F)ccc21)C(=O)Nc1cnc(C#N)c(C(F)(F)F)c1 [Compound 99, (S)—N-(6-Cyano-5-(trifluoromethyl)pyridin-3-yl)-3-(3,5-difluoro-1H-indazol-1-yl)-2-hydroxy-2-methylpropanamide]
metabolism (in words) [2]: rapid metabolism

C[C@](O)(Cn1cc(F)cn1)C(=O)Nc1ccc(C#N)c(C(F)(F)F)c1 [Compound 1002]
HLM Metabolism (H.L. min) [1]: 82 min
RLM Metebolism (H.L. min) (RLM metabolism half-life): 78 min
concentration at 30 h (in vivo): 33 nM
serum drug level (bioavailability) [3]: 33 nM
DN AUC0-24 [4, 6]: 2070 (h * ng/mL)/(mg/kg)
DN Cmax [4, 6]: 111 (ng/mL)/(mg/kg)
AUC0-24 [4, 7]: 9580 ng·h/mL
AUC(0-inf) [4, 7]: 9600 ng·h/mL
AUC(0-t) [4, 7]: 9580 ng·h/mL
C0 [4, 7]: 2460 ng/mL
Cmax [4, 7]: 2290 ng/mL
DN AUC0-24 [4, 7]: 1920
Tmax [4, 7]: 0.083 h
Vd [4, 7]: 2.14 L/kg
clearance [4, 7]: 8.68 mL/min/kg
half-life ([4]; male, Sprague Dawley, rat, in vivo, iv, 5 mg/kg, elimination half-life): 2.6 h
half-life ([4]; male, Sprague Dawley, rat, in vivo, iv, 5 mg/kg, t1/2): 2.62 h
AUC0-24 [4, 8]: 6860 ng·h/mL
AUC(0-inf) [4, 8]: 7050 ng·h/mL
AUC(0-t) [4, 8]: 6860 ng·h/mL
Cmax [4, 8]: 526 ng/mL
DN AUC0-24 [4, 8]: 1370
Tmax [4, 8]: 1 h
half-life ([4]; male, Sprague Dawley, rat, in vivo, po, 5 mg/kg, t1/2): 4.87 h
AUC0-t [4, 9]: 37000 ng·h/mL
AUC(0-t) [4, 9]: 37000 ng·h/mL
Cmax [4, 9]: 2620 ng/mL
DN AUC0-24 [4, 9]: 1850
Tmax [4, 9]: 6 h
Cmax [4, 10]: 3330 ng/mL
Tmax [4, 10]: 12 h
AUC0-24 [4, 11]: 77500 ng·h/mL
AUC(0-t) [4, 11]: 77500 ng·h/mL
Cmax [4, 11]: 3800 ng/mL
DN AUC0-24 [4, 11]: 1290
Tmax [4, 11]: 1 h

C[C@](O)(Cn1cc(C(F)(F)F)cn1)C(=O)Nc1ccc(C#N)c(C(F)(F)F)c1 [Compound 1017]
HLM Metabolism (H.L. min) [1]: 400 min
RLM Metebolism (H.L. min) (RLM metabolism half-life): 400 min
DMPK (MLM) T1/2 (min) ([2]; MLM): Infinity

C[C@](O)(Cn1cc(F)cn1)C(=O)Nc1cnc(C#N)c(C(F)(F)F)c1 [Compound 1022]
HLM Metabolism (H.L. min) [1]: 108 min
RLM Metebolism (H.L. min) (RLM metabolism half-life): 146 min
concentration at 30 h (in vivo): 64 nM
Serum Conc. ([3]; Table 2, rats 20 mg/kg, 24-30 hours after last dose): 64 nM
Serum Conc. ([3]; Table 3, 20 mg/kg Hershberger): 64 nM
serum drug level (bioavailability) [3]: 64 nM

C[C@](O)(Cn1cc(-c2ccc(F)cc2)nn1)C(=O)Nc1ccc(C#N)c(C(F)(F)F)c1 [Compound 1045]
pharmacokinetic properties (in words) ([3]; 20 mg/kg Hershberger experiment): outstanding pharmacokinetic properties

C[C@](O)(Cn1cc(C#N)cn1)C(=O)Nc1ccc(C#N)c(C(F)(F)F)c1 [Compound 1048]
HLM Metabolism (H.L. min) [1]: 400 min
RLM Metebolism (H.L. min) (RLM metabolism half-life): 86 min

C[C@](O)(Cn1cc(Br)c(F)n1)C(=O)Nc1ccc(C#N)c(C(F)(F)F)c1 [Compound 1058]
HLM Metabolism (H.L. min) [1]: 138 min
Body wt. on sac. day [5]: 430 g and 470 g
Day 0 body wt. [5]: 430 g and 472 g
RLM Metebolism (H.L. min) (RLM metabolism half-life): 400 min
decreased exposure at the same dose as 1065 ([4]; 20 mg/kg): 37%
DN AUC0-24 ([4]; Table 10, Group 1, oral 5 mg/kg/day): 5350 (h * ng/mL)/(mg/kg/day)
DN AUC0-24 ([4]; Table 10, Group 2, oral 10 mg/kg/day): 4460 (h * ng/mL)/(mg/kg/day)
DN AUC0-24 ([4]; Table 10, Group 3, oral 20 mg/kg/day): 3200 (h * ng/mL)/(mg/kg/day)
DN AUC0-24 ([4]; Table 10, Group 4, oral 30 mg/kg/day): 2380 (h * ng/mL)/(mg/kg/day)
DN AUC0-24 ([4]; Table 10, Group 5, iv 10 mg/kg Day 1): 4550 (h * ng/mL)/(mg/kg/day)

C[C@](O)(Cn1cc(Cl)c(Br)n1)C(=O)Nc1ccc(C#N)c(C(F)(F)F)c1 [Compound 1066, (S)-3-(3-Bromo-4-chloro-1H-pyrazol-1-yl)-N-(4-cyano-3-(trifluoromethyl)phenyl)-2-hydroxy-2-methylpropanamide]
HLM Metabolism (H.L. min) [1]: 319 min
RLM Metebolism (H.L. min) (RLM metabolism half-life): 300 min

C[C@](O)(Cn1ncc(Cl)c1Br)C(=O)Nc1ccc(C#N)c(C(F)(F)F)c1 [Compound 1067, (S)-3-(5-Bromo-4-chloro-1H-pyrazol-1-yl)-N-(4-cyano-3-(trifluoromethyl)phenyl)-2-hydroxy-2-methylpropanamide]
SARD Activity Full Length % inhibition at 1 μM (full length AR; first value of the pair, 1 μM): 61%
SARD Activity Full Length % inhibition at 10 μM (full length AR; second value of the pair, 10 μM): 86%

C[C@](O)(COc1ccc(C#N)cc1)C(=O)Nc1ccc(C#N)c(C(F)(F)F)c1 [Enobosarm]
SV and VP re-growth, % of intact vehicle (AR): 50-60%
agonist activity in ventral prostate and seminal vesicles (in words) (AR; 20 mg/kg): partial agonist; also recorded: significant agonism
